Assay results as given in patent publication US20220160608A1, “PEPTIDE FOR REDUCING HAIR LOSS AND PROMOTING HAIR GROWTH, AND COSMETIC COMPOSITION AND PHARMACEUTICAL COMPOSITION COMPRISING SAME” (INCOSPHARM CORPORATION, priority 2019, published 2022).

Key:
FGF1 and FGF7 = assay: RT-PCR for FGF1 and FGF7 gene expression in human dermal papilla cells; format: cell-based; settings: 10 or 40 μM
From the text: (§1) After completion of the culture, the cells were disrupted with Trizol (Ambion), total mRNA was collected with chloroform/isopropanol, and cDNA was synthesized with reverse transcriptase.

MMP-2 and ALP = assay: RT-PCR for MMP-2 and ALP gene expression in human dermal papilla cells; format: cell-based; settings: compared to the control group
Description: as §1
RT-PCR (Thermal Cycler, Bio-rad) was performed using primers specific for MMP-2 and ALP, and the amplified product was analyzed by agarose gel electrophoresis, and the results are shown in (a) of FIG. 6.

[1] = tested on: Wnt/β-catenin signaling pathway; settings: HFDPCs; for expression of p-GSK3β protein / expression of β-catenin protein: Western blot, compared to control group not treated with the peptide; for expression of active β-catenin protein, concentration screening: all concentrations from 0.1 μM to 100 μM (SEQ ID NO: 5) or 50 μM (SEQ ID NO: 10), effect not concentration-dependent
Description: Human follicular dermal papilla cells (HFDPCs) were uniformly plated at the number of 1×10^5 or 5×10^4 cells in a 6-well plate and cultured in an incubator in DMEM (Dulbecco's Modified Eagle Media, Gibco BRL) for 24 hours at 37° C. under 5% CO2 conditions. […] After adding 1 ml of each dilution to each well containing 1 ml of the medium the cells were incubated for a certain period of time. After the culture was completed, the medium was removed, the cells were disrupted with SDS sample buffer. Each protein was separated by SDS-PAGE gel electrophoresis and transferred to a polyvinylidene fluoride (PVDF) membrane, and then non-specific binding was eliminated using a blocking buffer.

[2] = tested on: p21 (cyclin-dependent kinase inhibitor 1a, Cdkn1a); settings: HFDPCs, Western blot, compared to the control group
Description: Specifically, human follicular dermal papilla cells (HFDPCs) were uniformly plated with western blot experimental method at the number of 1×10^5 cells in a 6-well plate and cultured in an incubator in DMEM (Dulbecco's Modified Eagle Media, Gibco BRL) for 24 hours at 37° C. under 5% CO2 conditions. The peptides of SEQ ID NO: 5 and SEQ ID NO: 10 of the present invention were dissolved in water at a concentration of 10 mM to obtain a concentrate, which was diluted with a medium to an optimal concentration of 10 or 40 μM, respectively. Thereafter, 1 ml of each dilution solution was added in each well containing 1 ml of medium, and incubated for 48 hours. After the culture was completed, the medium was removed and the cells were disrupted with SDS sample buffer, followed by separating each protein on SDS-PAGE gel electrophoresis, transferring to a polyvinylidene fluoride (PVDF) membrane, and then removing non-specific binding using a blocking buffer.
In order to analyze whether p21 may be inhibited by treatment with peptides of SEQ ID NO: 5 and SEQ ID NO: 10, Western blot for an expression of p21 protein was performed.
After transferring to a PVDF membrane (polyvinylidene fluoride), non-specific binding was eliminated using a blocking buffer.

[3] = tested on: Wnt/β-catenin signaling pathway inhibited by DKK-1; assay: Inhibition of DKK-1 activity: reactivation of Wnt/β-catenin signaling inhibited by recombinant DKK-1 (Western blot, HFDPCs); settings: for recovery (increase) of expression level of non-phospho (active) β-catenin: peptide treated simultaneously with recombinant DKK-1
Description: Specifically, human follicular dermal papilla cells (HFDPCs) were uniformly plated at the number of 5×10^4 cells in a 12-well plate and cultured in an incubator in DMEM (Dulbecco's Modified Eagle Media, Gibco BRL) for 24 hours at 37° C. under 5% CO2 conditions. After culturing, each well was treated with the recombinant protein DKK-1 to inhibit the Wnt/β-catenin signaling pathway, and further treated with the peptides of SEQ ID NO: 5 and SEQ ID NO: 10 of the present invention at appropriate concentrations, followed by culturing for a certain period of time.
After the culture was completed, the medium was removed, the cells were disrupted with SDS sample buffer. Each protein was separated by SDS-PAGE gel electrophoresis and transferred to a PVDF membrane (polyvinylidene fluoride), and then non-specific binding was eliminated using a blocking buffer.

[4] = tested on: growth hormones VEGF, IGF-I, FGF10; assay: Western blot for expression of hair-related growth hormone proteins in HFDPCs; format: cell-based, human; settings: 10 or 40 μM respectively, 48 hours
Description: Specifically, human follicular dermal papilla cells (HFDPCs) were uniformly plated with western blot experimental method at the number of 1×10^5 cells in a 6-well plate and cultured in an incubator in DMEM (Dulbecco's Modified Eagle Media, Gibco BRL) for 24 hours at 37° C. under 5% CO2 conditions. […] Thereafter, 1 ml of each dilution solution was added in each well containing 1 ml of medium, and incubated for 48 hours. After the culture was completed, the medium was removed and the cells were disrupted with SDS sample buffer, followed by separating each protein on SDS-PAGE gel electrophoresis, transferring to a polyvinylidene fluoride (PVDF) membrane, and then removing non-specific binding using a blocking buffer.

human hair follicles = settings: SEQ ID NO: 5 100 μM, SEQ ID NO: 10 16.6 μM; 7 or 10 days culture; compared to IGF-1 (10 ng/ml) or Minoxidil (10 μM) positive control
Description: After separating the surrounding tissues, the hair follicles isolated from the human scalp tissues were stored in Earle's balanced salts solution (EBSS; SigmaAldrich). The hair follicles in anagen phase were carefully separated under a microscope and then used in the experiment. The isolated hair follicles were cultured in Williams medium E (Gibco, Grand Island, N.Y., USA) at 37° C., 5% CO2 and 95% air with an addition of 2 mM L-glutamine (Gibco, NY, USA), 10 μg/ml insulin (SigmaAldrich), 10 ng/ml hydrocortisone (SigmaAldrich), 100 Unit/ml penicillin and 100 μg/ml streptomycin. […] At this time, as a positive control group, Minoxidil (10 μM) or IGF-1 (10 ng/ml) was treated.

LRP5 = LRP5 (human, UniProt O75197 32-1615); assay: cell-based or functional assay
LRP6 = LRP6 (human, UniProt O75581 20-1613); assay: cell-based or functional assay
LRP6, sequence (O75581 20-1613): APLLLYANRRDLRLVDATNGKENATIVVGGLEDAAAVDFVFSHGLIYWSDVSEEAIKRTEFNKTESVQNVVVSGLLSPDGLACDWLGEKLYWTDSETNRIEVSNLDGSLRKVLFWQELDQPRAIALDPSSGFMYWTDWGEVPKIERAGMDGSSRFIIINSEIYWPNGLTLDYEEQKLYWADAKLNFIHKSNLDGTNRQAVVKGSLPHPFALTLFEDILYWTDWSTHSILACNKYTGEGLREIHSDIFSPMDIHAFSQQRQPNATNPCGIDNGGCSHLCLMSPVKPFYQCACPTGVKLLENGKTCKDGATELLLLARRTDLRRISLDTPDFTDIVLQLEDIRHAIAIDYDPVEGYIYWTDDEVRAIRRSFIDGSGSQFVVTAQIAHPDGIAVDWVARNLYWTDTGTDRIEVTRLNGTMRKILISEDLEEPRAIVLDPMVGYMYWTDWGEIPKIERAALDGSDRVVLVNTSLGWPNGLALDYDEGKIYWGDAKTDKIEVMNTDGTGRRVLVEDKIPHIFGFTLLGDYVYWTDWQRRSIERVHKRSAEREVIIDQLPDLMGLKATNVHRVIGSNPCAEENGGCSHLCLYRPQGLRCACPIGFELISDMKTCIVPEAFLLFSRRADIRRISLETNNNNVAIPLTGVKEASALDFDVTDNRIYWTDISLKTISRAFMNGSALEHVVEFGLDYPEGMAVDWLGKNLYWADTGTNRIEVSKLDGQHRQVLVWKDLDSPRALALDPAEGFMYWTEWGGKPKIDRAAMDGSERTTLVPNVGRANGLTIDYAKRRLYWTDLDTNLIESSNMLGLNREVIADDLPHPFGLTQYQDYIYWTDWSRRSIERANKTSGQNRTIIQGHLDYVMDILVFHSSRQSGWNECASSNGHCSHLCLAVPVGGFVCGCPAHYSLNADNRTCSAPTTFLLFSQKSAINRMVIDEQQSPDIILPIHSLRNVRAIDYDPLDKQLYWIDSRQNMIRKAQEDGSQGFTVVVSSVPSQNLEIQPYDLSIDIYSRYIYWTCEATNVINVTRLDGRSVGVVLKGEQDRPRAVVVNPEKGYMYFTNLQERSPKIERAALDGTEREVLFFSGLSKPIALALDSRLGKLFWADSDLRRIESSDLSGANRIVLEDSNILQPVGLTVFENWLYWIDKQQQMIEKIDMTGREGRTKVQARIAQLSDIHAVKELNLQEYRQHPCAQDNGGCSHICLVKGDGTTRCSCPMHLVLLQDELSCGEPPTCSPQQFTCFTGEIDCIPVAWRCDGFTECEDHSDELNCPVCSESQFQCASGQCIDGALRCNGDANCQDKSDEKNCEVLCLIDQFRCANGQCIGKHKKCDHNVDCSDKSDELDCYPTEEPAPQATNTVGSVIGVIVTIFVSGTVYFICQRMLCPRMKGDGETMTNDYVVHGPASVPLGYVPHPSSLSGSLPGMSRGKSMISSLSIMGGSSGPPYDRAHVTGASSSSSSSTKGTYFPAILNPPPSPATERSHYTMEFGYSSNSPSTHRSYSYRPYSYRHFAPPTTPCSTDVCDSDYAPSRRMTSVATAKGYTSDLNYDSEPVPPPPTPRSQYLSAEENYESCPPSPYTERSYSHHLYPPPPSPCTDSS

LRP5, sequence (O75197 32-1615): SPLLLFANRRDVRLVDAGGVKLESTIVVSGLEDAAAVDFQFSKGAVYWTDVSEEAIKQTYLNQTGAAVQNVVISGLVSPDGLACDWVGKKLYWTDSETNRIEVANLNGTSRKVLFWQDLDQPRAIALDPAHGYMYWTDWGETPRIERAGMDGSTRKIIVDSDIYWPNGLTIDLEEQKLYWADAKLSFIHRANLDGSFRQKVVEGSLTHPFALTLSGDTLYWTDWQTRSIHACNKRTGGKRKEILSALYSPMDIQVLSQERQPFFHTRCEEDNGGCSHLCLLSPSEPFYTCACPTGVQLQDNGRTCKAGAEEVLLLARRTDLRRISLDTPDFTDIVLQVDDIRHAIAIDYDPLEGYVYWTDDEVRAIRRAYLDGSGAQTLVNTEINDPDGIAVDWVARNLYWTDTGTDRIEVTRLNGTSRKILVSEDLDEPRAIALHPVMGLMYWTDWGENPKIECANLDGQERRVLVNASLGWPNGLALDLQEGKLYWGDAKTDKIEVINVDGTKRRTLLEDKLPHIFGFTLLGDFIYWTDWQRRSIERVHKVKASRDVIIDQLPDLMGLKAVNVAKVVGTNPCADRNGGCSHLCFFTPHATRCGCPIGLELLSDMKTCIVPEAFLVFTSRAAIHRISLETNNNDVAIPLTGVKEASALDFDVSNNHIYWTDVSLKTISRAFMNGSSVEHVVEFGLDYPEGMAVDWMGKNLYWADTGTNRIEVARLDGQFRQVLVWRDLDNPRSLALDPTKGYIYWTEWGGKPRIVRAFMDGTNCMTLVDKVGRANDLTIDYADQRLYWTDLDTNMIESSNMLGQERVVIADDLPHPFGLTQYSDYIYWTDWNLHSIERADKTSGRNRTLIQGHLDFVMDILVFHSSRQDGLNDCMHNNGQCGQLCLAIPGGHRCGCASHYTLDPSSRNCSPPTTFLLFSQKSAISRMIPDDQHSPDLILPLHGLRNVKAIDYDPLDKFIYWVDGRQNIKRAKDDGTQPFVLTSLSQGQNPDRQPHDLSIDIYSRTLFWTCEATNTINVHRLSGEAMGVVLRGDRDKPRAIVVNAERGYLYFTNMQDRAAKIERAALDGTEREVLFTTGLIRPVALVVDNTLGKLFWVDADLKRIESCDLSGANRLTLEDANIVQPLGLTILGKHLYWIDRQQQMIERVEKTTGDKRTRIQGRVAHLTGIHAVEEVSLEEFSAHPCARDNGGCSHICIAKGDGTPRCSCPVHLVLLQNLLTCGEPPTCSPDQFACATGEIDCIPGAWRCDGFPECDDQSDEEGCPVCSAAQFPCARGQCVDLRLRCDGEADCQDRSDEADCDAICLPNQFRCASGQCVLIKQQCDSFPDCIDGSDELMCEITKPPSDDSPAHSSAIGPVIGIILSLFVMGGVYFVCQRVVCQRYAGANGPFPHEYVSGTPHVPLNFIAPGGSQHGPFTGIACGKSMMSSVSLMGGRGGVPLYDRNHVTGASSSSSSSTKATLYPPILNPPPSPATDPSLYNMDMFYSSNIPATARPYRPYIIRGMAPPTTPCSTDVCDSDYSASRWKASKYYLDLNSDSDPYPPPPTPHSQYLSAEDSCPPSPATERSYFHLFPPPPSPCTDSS

| expression level of non-phospho (active) β-catenin in HFDPCs treated with recombinant DKK-1 (western blot), recovery (LRP5) [%] | expression level of non-phospho (active) β-catenin in HFDPCs treated with recombinant DKK-1 (western blot), recovery (LRP6) [%] | Molecule | expression of FGF1 gene (FGF1 and FGF7) | expression of FGF7 gene (FGF1 and FGF7) | gene expression of ALP (MMP-2 and ALP) | gene expression of MMP-2 (MMP-2 and ALP) | expression of p-GSK3β protein [1] | expression of β-catenin protein [1] | expression of active β-catenin protein, concentration screening [1] | p21 protein expression [2] | recovery (increase) of expression level of non-phospho (active) β-catenin [3] | expression of FGF10 protein [4] | expression of IGF-I protein [4] | expression of VEGF protein [4] | hair shaft growth (length of hair shaft) (human hair follicles) | also measured |
| --- | --- | --- | --- | --- | --- | --- | --- | --- | --- | --- | --- | --- | --- | --- | --- | --- |
|  |  | arginine-isoleucine-proline [SEQ ID NO: 10] | increased | increased | increased | increased | significantly increased | significantly increased | increased | significantly reduced | ~31% | increased | increased | increased | superior hair shaft growth |  |
|  |  | serine-cysteine-arginine-isoleucine-glutamine [SEQ ID NO: 5] | increased | increased | increased | increased | significantly increased | significantly increased | increased | significantly reduced | about 10% | increased | increased | increased | superior hair shaft growth |  |
|  |  | recombinant protein DKK-1 (Dickkopf-1) (from UniProt O94907 32-266) (ligand) |  |  |  |  |  |  |  |  |  |  |  |  |  | expression level of non-phospho(active) β-catenin in HFDPCs (western blot), decrease against untreated control (LRP5): 24%; expression level of non-phospho(active) β-catenin in HFDPCs (western blot), decrease against untreated control (LRP6): 24% |
|  |  | DKK-1: recombinant protein, potent antagonist of the Wnt/β-catenin signaling pathway, ligand of LRP5/6 (protein) TLNSVLNSNAIKNLPPPLGGAAGHPGSAVSAAPGILYPGGNKYQTIDNYQPYPCAEDEECGTDEYCASPTRGGDAGVQICLACRKRRKRCMRHAMCCPGNYCKNGICVSSDQNHFRGEIEETITESFGNDHSTLDGYSRRTTLSSKMYHTKGQEGSVCLRSSDCASGLCCARHFWSKICKPVLKEGQVCTKHRRKGSHGLEIFQRCYCGEGLSCRIQKDHHQASNSSRLHTCQRH |  |  |  |  |  |  |  |  |  |  |  |  |  | decrease of expression level of non-phospho(active) β-catenin ([3]; control group treated with recombinant protein DKK-1): about 24% |
| ~31 | ~31 | RIP [peptide of SEQ ID NO: 10 (arginine-isoleucine-proline, RIP)] |  |  |  |  |  |  |  |  |  |  |  |  |  |  |
| ~10 | ~10 | SCRIQ [peptide of SEQ ID NO: 5 (serine-cysteine-arginine-isoleucine-glutamine, SCRIQ)] |  |  |  |  |  |  |  |  |  |  |  |  |  |  |
